Data from publication PMC6429275, “Isothiocyanates and Glucosinolates from Sisymbrium officinale (L.) Scop. (“the Singers’ Plant”): Isolation and in Vitro Assays on the Somatosensory and Pain Receptor TRPA1 Channel” (Molecules, 2019).
Several values for one entry are separate records, joined by “and”; a condition that tells them apart may be missing. Identical values can stand only once. Like-named read-outs stand apart in the source and are kept apart here.

Legend:
rat TRPA1 [1] = target: T1, rat TRPA1 (Rattus norvegicus, UniProt Q6RI86); assay: rat TRPA1-mediated elevation of intracellular Ca2+ (Fluo-4) in transfected HEK-293 cells, agonist mode; type: cell-based; details: for Efficacy (%AITC 100μM): TRPA1, percentage of the effect on [Ca2+]i observed with 100 μM allylisothiocyanate (AITC); for Efficacy (%AITC 100μM) / EC50: rTRPA1-HEK-293 cells; for activity on TRPA1 channel (result in words): in vitro assays on TRPA1; for EC50: Potency EC50, TRPA1, concentration producing half-maximal increase in [Ca2+]i
T1 construct: expressed in transfected cells; host or cells: HEK-293 cells, stably transfected
Experimental: (§1) Compound effects on intracellular Ca^2+ concentration ([Ca^2+]i) were determined using the selective intracellular fluorescent probe Fluo-4. Assays of the rat TRPA1-mediated elevation of intracellular Ca^2+ in transfected HEK-293 cells were performed as described. Briefly, human embryonic kidney (HEK-293) cells (stably transfected with rat TRPA1 or not transfected) were cultured in EMEM + 2 mM Glutamine + 1 % non-essential amino acids (NEAA) + 10 % FBS and maintained at 37 °C with 5 % CO2. On the day of the experiment, the cells were loaded with Fluo-4 AM (4 μM) for 1 h at room temperature, rinsed and resuspended in Tyrode’s solution (145 mM NaCl, 2.5 mM KCl, 1.5 mM CaCl2, 1.2 mM MgCl2, 10 mM d-glucose, and 10 mM HEPES, pH 7.4), and finally transferred to a quartz cuvette of a spectrofluorimeter (Perkin-Elmer LS50B, Perkin Elmer Inc, Buckinghamshire, UK); λEX = 488 nm, λEM = 516 nm) equipped with a PTP-1 Fluorescence Peltier System (PerkinElmer Life and Analytical Sciences, Waltham, MA, USA) under continuous stirring. Cell fluorescence before and after the addition of various concentrations of test compounds was measured, normalizing the effects against the response to ionomycin (4 µM). The values of the effect on [Ca^2+]i in not-transfected HEK-293 cells were used as a baseline and subtracted from the values obtained from transfected cells. Agonist efficacy was expressed as a percentage of the effect on [Ca^2+]i observed with 100 μM allylisothiocyanate (AITC). The potency of the compounds (EC50 values) was determined as the concentration required to produce half-maximal increases in [Ca^2+]i. Antagonist/desensitizing behavior as evaluated against TRPA1 agonist AITC 100 μM by adding the compound directly into the quartz cuvette 5 min before the stimulation of cells with the agonist. IC50 is expressed as the concentration exerting a half-maximal inhibition of an agonist effect, taking as 100% the effect on [Ca^2+]i exerted by the agonist alone. Dose–response curves are fitted by a sigmoidal regression with a variable slope. Curve fitting and parameter estimation were performed with a GraphPad Prism (GraphPad Software Inc., San Diego, CA). Three independent experiments were done for each determination; all determinations were performed at least in triplicate. The time-course spectra showing the increase of intracellular Ca^2+ upon application of the compounds are available in Supplementary Material (S10).

rat TRPA1 [2] = target: T1, rat TRPA1; assay: Antagonist/desensitizing behavior against AITC 100 μM in rTRPA1-HEK-293 cells (5 min pre-incubation); type: cell-based
Experimental: as §1

[3] = test system: not-transfected HEK cells; assay: Intracellular Ca2+ elevation in not-transfected HEK-293 cells; type: cell-based, human; details: compound at 100 μM
Experimental: Compound effects on intracellular Ca^2+ concentration ([Ca^2+]i) were determined using the selective intracellular fluorescent probe Fluo-4. Assays of the rat TRPA1-mediated elevation of intracellular Ca^2+ in transfected HEK-293 cells were performed as described. Briefly, human embryonic kidney (HEK-293) cells (stably transfected with rat TRPA1 or not transfected) were cultured in EMEM + 2 mM Glutamine + 1 % non-essential amino acids (NEAA) + 10 % FBS and maintained at 37 °C with 5 % CO2. On the day of the experiment, the cells were loaded with Fluo-4 AM (4 μM) for 1 h at room temperature, rinsed and resuspended in Tyrode’s solution (145 mM NaCl, 2.5 mM KCl, 1.5 mM CaCl2, 1.2 mM MgCl2, 10 mM d-glucose, and 10 mM HEPES, pH 7.4), and finally transferred to a quartz cuvette of a spectrofluorimeter (Perkin-Elmer LS50B, Perkin Elmer Inc, Buckinghamshire, UK); λEX = 488 nm, λEM = 516 nm) equipped with a PTP-1 Fluorescence Peltier System (PerkinElmer Life and Analytical Sciences, Waltham, MA, USA) under continuous stirring. Cell fluorescence before and after the addition of various concentrations of test compounds was measured, normalizing the effects against the response to ionomycin (4 µM). […] Agonist efficacy was expressed as a percentage of the effect on [Ca^2+]i observed with 100 μM allylisothiocyanate (AITC). […]

T1 sequence (Q6RI86 whole entry): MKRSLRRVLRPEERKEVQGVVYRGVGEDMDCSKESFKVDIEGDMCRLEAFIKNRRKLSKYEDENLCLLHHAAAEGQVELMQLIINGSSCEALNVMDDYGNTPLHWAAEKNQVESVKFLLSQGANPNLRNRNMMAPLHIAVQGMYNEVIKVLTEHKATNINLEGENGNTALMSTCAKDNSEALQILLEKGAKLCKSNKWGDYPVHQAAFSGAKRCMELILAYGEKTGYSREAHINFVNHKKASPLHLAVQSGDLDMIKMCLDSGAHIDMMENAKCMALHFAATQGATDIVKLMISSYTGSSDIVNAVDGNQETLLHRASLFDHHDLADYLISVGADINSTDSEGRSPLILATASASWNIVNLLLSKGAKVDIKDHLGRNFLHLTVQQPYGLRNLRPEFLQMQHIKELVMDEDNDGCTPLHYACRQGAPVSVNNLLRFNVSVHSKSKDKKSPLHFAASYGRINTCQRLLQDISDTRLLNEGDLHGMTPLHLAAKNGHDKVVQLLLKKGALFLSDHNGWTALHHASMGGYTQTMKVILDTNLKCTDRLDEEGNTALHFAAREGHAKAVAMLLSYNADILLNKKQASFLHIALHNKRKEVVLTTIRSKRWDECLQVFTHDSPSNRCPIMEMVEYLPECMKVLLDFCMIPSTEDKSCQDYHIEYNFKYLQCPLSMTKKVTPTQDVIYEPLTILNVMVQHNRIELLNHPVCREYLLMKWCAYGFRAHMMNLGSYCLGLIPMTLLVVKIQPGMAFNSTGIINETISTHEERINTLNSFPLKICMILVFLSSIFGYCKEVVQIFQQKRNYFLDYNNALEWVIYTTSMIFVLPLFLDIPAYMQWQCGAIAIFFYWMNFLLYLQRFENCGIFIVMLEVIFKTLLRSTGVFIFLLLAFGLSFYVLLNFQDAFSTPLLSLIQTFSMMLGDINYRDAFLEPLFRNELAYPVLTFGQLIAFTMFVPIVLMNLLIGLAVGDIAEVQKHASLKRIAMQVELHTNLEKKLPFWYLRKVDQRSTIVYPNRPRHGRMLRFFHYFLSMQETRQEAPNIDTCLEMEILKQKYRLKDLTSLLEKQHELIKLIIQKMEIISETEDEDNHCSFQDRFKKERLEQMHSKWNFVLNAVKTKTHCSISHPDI

With `CC(C)/C(=N/OS(=O)(=O)O)S[C@@H]1O[C@H](CO)[C@@H](O)[C@H](O)[C@H]1O` [Compound 1, glucoputranjivin] the “Efficacy (%AITC 100μM)” value (rat TRPA1 [1]) was under 10%, the “activity on TRPA1 channel (result in words)” value (from here on “activity on TRPA1 channel”) (rat TRPA1 [1]) was “ineffective” and the “activity on TRPA1 channel” value (rat TRPA1 [1]; listed as glucoputranjivin) was “inactive”. The IC50 (rat TRPA1 [2]; compound added 5 min before stimulation with AITC 100 μM, rTRPA1-HEK-293 cells, read-out: IC50 Inhibition TRPA1 (AITC 100μM)) was over 100 µM.

With `C=CCC(=NOS(=O)(=O)O)S[C@@H]1O[C@H](CO)[C@@H](O)[C@H](O)[C@H]1O` (stereo in doubt) [Compound 5, sinigrin, reference compound] the “Efficacy (%AITC 100μM)” value (rat TRPA1 [1]) was under 10%, the “activity on TRPA1 channel” value (rat TRPA1 [1]) was “ineffective” and the “activity on TRPA1 channel” value (rat TRPA1 [1]; listed as sinigrin) was “inactive”. For the same compound, the IC50 (rat TRPA1 [2]) was over 100 µM.

For `CC(C)N=C=S` [Compound 2, isopropylisothiocyanate], the EC50 (rat TRPA1 [1]) was 5.9 ± 0.4 µM, the “Efficacy (%AITC 100μM)” value (rat TRPA1 [1]) was 108.8% and 108.8 ± 1.6% and the IC50 (rat TRPA1 [2]) was 10.8 ± 0.4 µM. The “activity (elevation of internal Ca2+) on not-transfected HEK cells” value [3] was “less than 1%”.

For `CCC(C)N=C=S` (stereo not shown) [Compound 4, 2-butylisothiocyanate], the EC50 (rat TRPA1 [1]) was 4.9 ± 0.2 µM, the “Efficacy (%AITC 100μM)” value (rat TRPA1 [1]) was 98.0% and 98.0 ± 1.0% and the IC50 (rat TRPA1 [2]) was 12.1 ± 0.2 µM. The “activity (elevation of internal Ca2+) on not-transfected HEK cells” value [3] was “less than 1%”.
